Data as given in BigSolDB 2.1.

COC(=O)Nc1nc2ccc(Sc3ccccc3)cc2[nH]1
solubility (mole fraction)
Conditions	283.15 K	288.15 K	293.15 K	298.15 K	303.15 K	308.15 K	313.15 K	318.15 K	323.15 K	328.15 K
in 1,4-dioxane	–	0.00107	0.00124	0.00148	0.00169	0.00195	0.00222	0.00256	0.00289	0.00326
in NMP	0.0348	0.0389	0.0435	0.0485	0.0537	0.059	0.0651	0.0711	0.0773	0.0843
in acetone	0.000176	0.000192	0.000211	0.000228	0.000246	0.000265	0.000287	0.000308	0.00033	0.000353
in water	3.48e-06	4.4e-06	5.61e-06	7.12e-06	9.14e-06	1.15e-05	1.43e-05	1.77e-05	2.14e-05	2.63e-05
